Data from article PMC9051106, “Structural insights into TRPV2 activation by small molecules” (Nature Communications, 2022).
Values joined by “and” are separate entries in the source; they are usually repeats but may differ in a detail not shown here. Identical values can stand only once.

Tests used:
[1] = target: Arg535Lys rat TRPV2 (Rattus norvegicus, UniProt Q9WUD2, R535K)
Experimental: (§1) Nanofectin (PAA, Pasching, Austria) was used to transfect HEK293T cells with WT rat TRPV2, Arg535Lys rat TRPV2, Arg539Lys rat TRPV2, His521Ala rat TRPV2, His521Asn rat TRPV2, His521Ala/Arg539Lys rat TRPV2, Thr522Ala rat TRPV2 and Tyr525Ala rat TRPV2. Mutants were generated according to the instructions of the manufacturer by site directed mutagenesis with the quick-change lightning site-directed mutagenesis kit (Aglient, Waldbronn, Germany). […] Cells were cultured at 37 °C with 5% CO2 in Dulbecco’s modified Eagle medium nutrient mixture F12 (DMEM/F12 Gibco/Invitrogen, Darmstadt, Germany) and supplemented with 10% fetal bovine serum, (Biochrom, Berlin, Germany).
(§2) Whole-cell voltage clamp was performed with an EPC10 USB HEKA amplifier (HEKA Electronik, Lamprecht, Germany), much as previously described. Signals were low passed at 1 kHz and sampled at 2–10 kHz. Patch pipettes were pulled from borosilicate glass tubes (TW150F-3; World Precision Instruments, Berlin, Germany) to give a resistance of about 3 MΩ. Cells were held at −60 mV and all recordings were performed at room temperature. The external solution contained: 140 mM NaCl, 5 mM KCl, 2 mM MgCl2, 5 mM EGTA, 10 mM glucose, and 10 mM HEPES, pH 7.4 (adjusted with NaOH). Calcium was omitted in order to avoid desensitization. The standard pipette solution contained: 140 mM KCl, 2 mM MgCl2, 5 mM EGTA and 10 mM HEPES, pH 7.4 (adjusted with KOH). A gravity-driven glass multi-barrel perfusion system was used to bath apply solutions. Data acquisition and off-line analyses required Patchmaster/Fitmaster software (HEKA Electronik, Lamprecht, Germany) and Origin 8.5.1 (Origin Lab, Northampton, MA, USA).

[2] = target: Arg539Lys rat TRPV2 (Rattus norvegicus, UniProt Q9WUD2, R539K)
Experimental: as §1, §2

[3] = target: His521Ala rat TRPV2 (Rattus norvegicus, UniProt Q9WUD2, H521A)
Experimental: as §1, §2

[4] = target: His521Ala/Arg539Lys rat TRPV2 (Rattus norvegicus, UniProt Q9WUD2, H521A/R539K)
Experimental: as §1, §2

[5] = target: His521Asn rat TRPV2 (Rattus norvegicus, UniProt Q9WUD2, H521N)
Experimental: as §1, §2

[6] = target: Thr522Ala rat TRPV2 (Rattus norvegicus, UniProt Q9WUD2, T522A)
Experimental: as §1, §2

[7] = target: Tyr525Ala rat TRPV2 (Rattus norvegicus, UniProt Q9WUD2, Y525A); details: with either 2-APB or heat
Experimental: as §1, §2

[8] = target: T1, wildtype rat TRPV2 (Rattus norvegicus, UniProt Q9WUD2)
T1 sequence (Q9WUD2 1-761): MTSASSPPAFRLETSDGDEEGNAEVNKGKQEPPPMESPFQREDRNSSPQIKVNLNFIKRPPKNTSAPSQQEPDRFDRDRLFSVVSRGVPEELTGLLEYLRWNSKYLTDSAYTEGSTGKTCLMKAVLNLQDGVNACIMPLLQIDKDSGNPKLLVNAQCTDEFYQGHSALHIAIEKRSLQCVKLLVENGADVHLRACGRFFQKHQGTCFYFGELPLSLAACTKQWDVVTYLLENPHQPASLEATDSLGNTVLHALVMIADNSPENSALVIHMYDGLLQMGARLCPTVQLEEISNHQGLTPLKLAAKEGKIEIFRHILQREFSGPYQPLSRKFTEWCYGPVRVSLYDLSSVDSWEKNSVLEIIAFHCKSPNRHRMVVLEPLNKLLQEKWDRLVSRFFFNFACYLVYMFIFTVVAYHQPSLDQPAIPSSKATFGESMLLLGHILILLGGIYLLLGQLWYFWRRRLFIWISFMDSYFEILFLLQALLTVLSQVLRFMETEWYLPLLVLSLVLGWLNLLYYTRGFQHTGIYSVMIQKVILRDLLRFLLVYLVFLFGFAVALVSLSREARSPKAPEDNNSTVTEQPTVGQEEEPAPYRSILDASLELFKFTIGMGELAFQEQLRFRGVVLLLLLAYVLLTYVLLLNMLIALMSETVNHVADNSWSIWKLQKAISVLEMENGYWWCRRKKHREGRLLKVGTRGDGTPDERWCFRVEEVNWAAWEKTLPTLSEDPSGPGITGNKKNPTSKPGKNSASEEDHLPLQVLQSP
Experimental: as §1, §2

[9] = target: T1, wildtype rat TRPV2; assay: Whole-cell patch recordings, current density with 2-APB alone and 2-APB co-applied with CBD; type: cell-based; design: expressed in transfected cells; host or cells: HEK293T; details: for current density: Mean ± SEM, N = 7
Experimental: as §1, §2

[10] = HEK293T, held at −60 mV, mean ± S.E.M.

Chain of Arg539Lys rat TRPV2 (Q9WUD2 whole entry R539K): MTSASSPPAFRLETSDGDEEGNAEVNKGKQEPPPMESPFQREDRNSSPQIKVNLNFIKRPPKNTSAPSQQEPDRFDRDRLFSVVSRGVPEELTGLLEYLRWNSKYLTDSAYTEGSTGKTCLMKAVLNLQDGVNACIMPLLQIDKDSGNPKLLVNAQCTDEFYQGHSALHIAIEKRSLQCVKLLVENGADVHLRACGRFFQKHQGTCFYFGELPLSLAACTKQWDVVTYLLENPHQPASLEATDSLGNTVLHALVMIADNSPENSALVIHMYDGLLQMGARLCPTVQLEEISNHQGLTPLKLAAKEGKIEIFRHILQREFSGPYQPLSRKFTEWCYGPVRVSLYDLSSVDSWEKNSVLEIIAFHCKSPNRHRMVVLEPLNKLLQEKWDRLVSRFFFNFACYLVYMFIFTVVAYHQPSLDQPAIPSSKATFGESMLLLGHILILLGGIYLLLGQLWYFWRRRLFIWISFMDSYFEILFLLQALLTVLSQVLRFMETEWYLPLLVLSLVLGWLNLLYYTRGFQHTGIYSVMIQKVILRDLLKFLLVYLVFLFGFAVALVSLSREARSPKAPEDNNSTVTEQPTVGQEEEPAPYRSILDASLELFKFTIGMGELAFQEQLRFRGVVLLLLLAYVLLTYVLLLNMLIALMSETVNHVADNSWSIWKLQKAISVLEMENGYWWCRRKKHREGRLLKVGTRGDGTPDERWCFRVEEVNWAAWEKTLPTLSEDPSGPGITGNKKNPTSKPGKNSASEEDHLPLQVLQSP
Chain of His521Ala/Arg539Lys rat TRPV2 (Q9WUD2 whole entry H521A/R539K): as the sequence (Q9WUD2 whole entry R539K) above, with H521A counted along it
Chain of His521Ala rat TRPV2 (Q9WUD2 whole entry H521A): as the sequence (Q9WUD2 whole entry R539K) above, with H521A, K539R counted along it
Chain of Arg535Lys rat TRPV2 (Q9WUD2 whole entry R535K): as the sequence (Q9WUD2 whole entry R539K) above, with R535K, K539R counted along it
Chain of His521Asn rat TRPV2 (Q9WUD2 whole entry H521N): as the sequence (Q9WUD2 whole entry R539K) above, with H521N, K539R counted along it
Chain of Thr522Ala rat TRPV2 (Q9WUD2 whole entry T522A): as the sequence (Q9WUD2 whole entry R539K) above, with T522A, K539R counted along it
Chain of Tyr525Ala rat TRPV2 (Q9WUD2 whole entry Y525A): as the sequence (Q9WUD2 whole entry R539K) above, with Y525A, K539R counted along it

SMILES: NCCOB(c1ccccc1)c1ccccc1 [2-APB, 2-aminoethoxydiphenyl borate]
- Hill coefficient [1]: 3.3 ± 0.5
- EC50 [1, 10]: 79 ± 11 µM
- Hill coefficient ([2]; Arg539Lys): 5.6 ± 1.1
- EC50 ([2]; Arg539Lys, HEK293T, held at −60 mV, mean ± S.E.M.): 683 ± 78 µM
- Current (minus Leak) ([2]; rTRPV2 - R539K, 2-APB 50µM, single cell): 6.3 and 7.05 and 6.6
- Hill coefficient [3]: 3.3 ± 0.3
- EC50 [3, 10]: 991 ± 131 µM
- Hill coefficient ([4]; His521Ala/Arg539Lys): 5.2 ± 0.6
- EC50 ([4]; His521Ala/Arg539Lys, HEK293T, held at −60 mV, mean ± S.E.M.): 1750 ± 125 µM
- decrease in 2-APB sensitivity ([4]; double mutant compared to the wildtype TRPV2): fivefold
- Hill coefficient [5]: 4.3 ± 0.3
- EC50 ([5]; HEK293T, held at −60 mV): 742 ± 14 µM
- Hill coefficient [6]: 3.0 ± 0.3
- EC50 [6, 10]: 232 ± 43 µM
- membrane currents evoked [7]: could not evoke any membrane currents
- Hill coefficient ([8]; wildtype): 3.0 ± 0.2
- EC50 ([8]; wildtype rat TRPV2, HEK293T, held at −60 mV, mean ± S.E.M.): 322 ± 27 µM
- current density ([9]; 2-APB alone 10 μM): 0.98 ± 0.1 pA/pF
- current ([9]; 2-APB alone 10 µM, single cell): 12.35 and 14.18 and 12.95 and 20 and 11.76 and 11.18
- current density ([9]; 2-APB alone 30 μM): 2.8 ± 0.3 pA/pF
- current density ([9]; 2-APB alone 100 μM): 24.9 ± 3.7 pA/pF
